From ChEMBL document CHEMBL3885861, “Open TG-GATES”

Species on record: Rattus norvegicus
Assay: Open TG-GATES - Regimen: Daily Repeat
Format: toxicity, organism-based, Sprague-Dawley
Set-up: regimen Daily Repeat, gender Male, age 6 weeks
Conditions: in vivo, po, 0 mg/kg, route gavage, dose level Control; for KIDNEY_L / KIDNEY_R / KIDNEY_TOTAL: tissue Kidney; for ALP / ALT / AST / BUN / CRE / Ca / Cl / DBIL / GLC / IP / K / LDH / Na / PL / RALB / TBIL / TC / TG / TP / gamma-GTP: tissue Plasma

## CC(=O)Oc1ccccc1C(=O)O [ASPIRIN]
72 h, time 3 day
  TERMINAL_BW: 238.8 g
  KIDNEY_L: 1.1 g
  KIDNEY_R: 1.1 g
  KIDNEY_TOTAL: 2.1 g
  ALP: 970.4 IU/L
  ALT: 35.6 IU/L
  AST: 73.2 IU/L
  BUN: 14.8 mg/dL
  CRE: 0.4 mg/dL
  Ca: 10.8 mg/dL
  Cl: 102.2 meq/L
  DBIL: 0.082 mg/dL
  GLC: 203.2 mg/dL
  IP: 7.1 mg/dL
  K: 3.9 meq/L
  LDH: 223 IU/L
  Na: 140.4 meq/L
  PL: 148.8 mg/dL
  RALB: 3.4 g/dL
  TBIL: 0.1 mg/dL
  TC: 74.6 mg/dL
  TG: 99.2 mg/dL
  TP: 5.7 g/dL
  gamma-GTP: 1 IU/L
72 h, tissue Blood, time 3 day
  APTT: 19.3 s
  Bas: 0%
  Eos: 1%
  Fbg: 216.6 mg/dL
  Hb: 13.1 g/dL
  Ht: 38.5%
  Lym: 82%
  MCH: 21.2 pg
  MCHC: 34.2%
  MCV: 62.1 fL
  Mono: 2.4%
  Neu: 13.4%
  Plat: 121.3 x10_4/uL
  RBC: 620 x10_4/ul
  Ret: 5.9%
  WBC: 98.5 x10_2/uL
[…], time 7 day
  TERMINAL_BW: 272.8 g
  KIDNEY_L: 1.2 g
  KIDNEY_R: 1.2 g
  KIDNEY_TOTAL: 2.3 g
  ALP: 844.4 IU/L
  ALT: 29.2 IU/L
  AST: 59.2 IU/L
  BUN: 15.8 mg/dL
  CRE: 0.4 mg/dL
  Ca: 10.7 mg/dL
  Cl: 102.4 meq/L
  DBIL: 0.096 mg/dL
  GLC: 210.8 mg/dL
  IP: 7.6 mg/dL
  K: 3.6 meq/L
  LDH: 178.2 IU/L
  Na: 141 meq/L
  PL: 137.4 mg/dL
  RALB: 3.4 g/dL
  TBIL: 0.1 mg/dL
  TC: 66.4 mg/dL
  TG: 100.2 mg/dL
  TP: 5.5 g/dL
  gamma-GTP: 0.6 IU/L
[…], time 14 day
  TERMINAL_BW: 324.4 g
  KIDNEY_L: 1.3 g
  KIDNEY_R: 1.3 g
  KIDNEY_TOTAL: 2.5 g
  ALP: 726.8 IU/L
  ALT: 33.4 IU/L
  AST: 62.2 IU/L
  BUN: 17.8 mg/dL
  CRE: 0.4 mg/dL
  Ca: 10.8 mg/dL
  Cl: 103 meq/L
  DBIL: 0.1 mg/dL
  GLC: 193.6 mg/dL
  IP: 7.2 mg/dL
  K: 3.9 meq/L
  LDH: 220.2 IU/L
  Na: 141 meq/L
  PL: 151.2 mg/dL
  RALB: 3.3 g/dL
  TBIL: 0.1 mg/dL
  TC: 67.8 mg/dL
  TG: 152.8 mg/dL
  TP: 5.8 g/dL
  gamma-GTP: 1 IU/L
[…], time 28 day
  TERMINAL_BW: 389.9 g
  KIDNEY_L: 1.4 g
  KIDNEY_R: 1.4 g
  KIDNEY_TOTAL: 2.8 g
  ALP: 605.4 IU/L
  ALT: 33.2 IU/L
  AST: 60.8 IU/L
  BUN: 17 mg/dL
  CRE: 0.5 mg/dL
  Ca: 10.1 mg/dL
  Cl: 103.2 meq/L
  DBIL: 0.1 mg/dL
  GLC: 213 mg/dL
  IP: 6.3 mg/dL
  K: 3.7 meq/L
  LDH: 150 IU/L
  Na: 141 meq/L
  PL: 132.4 mg/dL
  RALB: 3.4 g/dL
  TBIL: 0.2 mg/dL
  TC: 65.4 mg/dL
  TG: 111.6 mg/dL
  TP: 6 g/dL
  gamma-GTP: 1.2 IU/L
[…], tissue Blood, time 7 day
  APTT: 21.2 s
  Bas: 0%
  Eos: 1%
  Fbg: 211.2 mg/dL
  Hb: 13.7 g/dL
  Ht: 40.3%
  Lym: 85.6%
  MCH: 21.1 pg
  MCHC: 34%
  MCV: 62.1 fL
  Mono: 2%
  Neu: 11%
  Plat: 128.4 x10_4/uL
  RBC: 648.4 x10_4/ul
  Ret: 5.3%
  WBC: 135.5 x10_2/uL
[…], tissue Blood, time 14 day
  APTT: 20.2 s
  Bas: 0%
  Eos: 0.8%
  Fbg: 216.8 mg/dL
  Hb: 14.2 g/dL
  Ht: 40.6%
  Lym: 82.6%
  MCH: 20.8 pg
  MCHC: 34.9%
  MCV: 59.6 fL
  Mono: 2%
  Neu: 13.4%
  RBC: 681.6 x10_4/ul
  Ret: 3.4%
  WBC: 134.5 x10_2/uL
[…], tissue Blood, time 28 day
  APTT: 21.5 s
  Bas: 0%
  Eos: 1%
  Fbg: 210.8 mg/dL
  Hb: 15.7 g/dL
  Ht: 45.3%
  Lym: 81.8%
  MCH: 19.3 pg
  MCHC: 34.7%
  MCV: 55.6 fL
  Mono: 2%
  Neu: 13.8%
  PT: 12.6 s
  Plat: 116.7 x10_4/uL
  RBC: 815.4 x10_4/ul
  Ret: 1.8%
  WBC: 109 x10_2/uL
